In patent US20250296953A1, “3,4-THIAZOLO-STEROIDS AND METHODS OF MAKING AND USING THE SAME” (Arkansas State University - Jonesboro, priority 2018, published 2025):
Read-outs that look alike come from different tables or passages of the source.

Key:
Assay type in all cases: cell-based
LOX IMVI = assay: Melanoma cytotoxicity assay (resazurin); settings: for IC50: Homo sapiens, LOX IMVI melanoma cells
How it was run: (§1)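 ~4000 cells/well, 24 h attach, 37° C/5% CO2; cpd triplicate, 24 h; resazurin 6 h; fluor 544/590 nm. % viability vs DMSO after media-blank subtraction; IC50 from dilution series, sigmoidal fit.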

SK-MEL-25 = assay: Melanoma cytotoxicity assay (resazurin); settings: for IC50: Homo sapiens; for SK-MEL-25 (% viability): human, 24 h
How it was run: as §1

SK-MEL-28 = assay: Melanoma cytotoxicity assay (resazurin); settings: for IC50: Homo sapiens, SK-MEL-28 melanoma cells; for SK-MEL-28 (% viability): human, 24 h
How it was run: as §1

SK-MEL-5 = assay: Melanoma cytotoxicity assay (resazurin); settings: human, 24 h
How it was run: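 Readout: resazurin fluorescence (ex 544, em 590 nm) after 6 h dye incubation, following 24 h compound exposure of ~4000 cells/well. Viability = background-subtracted signal over DMSO wells; IC50 by sigmoidal curve fitting.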

HFF-1 = assay: Cytotoxicity assay (resazurin); settings: Homo sapiens, HFF-1 cells
MALME-3M = assay: Melanoma cytotoxicity assay (resazurin); settings: human, 24 h
Procedure: On day 1, the cell line trypsinized and centrifuged to form cell pellet. The pellet was diluted in media, then counted using Countess automated cell counter. Approximately 4000 cells (198 uL) per well plated in […]. A control well of 200 uL growth media was also prepared. Wells closest to plate perimeter were filled with 200 uL PBS to prevent inner well evaporation. The 96 well plates are incubated in 37° C. incubator at 5% CO2 for 24 hours.
On day 2, compounds were added (in triplicate) along with DMSO/Dacarbazine controls (2 uL) added to bring wells to volume of 200 μL. The 96 well plates are incubated in 37° C. incubator at 5% CO2 for 24 hours.
On day 3, 40 μL of 0.15 mg/ml reszurin solution added to wells. Samples were placed in a 37° C. incubator at 5% CO2 for 6 hours. Excitation and emission for fluorescence measured at 544 nm and 590 nm using BMG Labtech Fluostar Optima plate reader
Percent viability determined by taking average of each triplicate well fluorescence and subtracting GM well reading to remove the background signal. This difference is then divided by the average of the negative control (DMSO) wells to determine percent viability.
IC50s were determined by using cereal dilution of compound to determine viability. Viabilities and concentration of cells are analyzed in Graphpad Prism by creating sigmoidal curve graph, which will determine the IC50 concentration.
We analyzed the ability of the thiazole-androstane derivatives to inhibit growth in various melanoma cell lines. The growth inhibition against melanoma cell lines of various compound is shown below in Tables 19 and 20. Inhibition results are reported as the IC50 concentration in μM of the indicated compound or as the percent viability […] of the indicated compound. NA=not available.

[1] = SK-MEL-25 melanoma cells (head prints SK-25), read-out: SK-25 IC50

Compound	IC50 (LOX IMVI) [µM]	IC50 (SK-MEL-25; [1]) [µM]	SK-MEL-25 (% viability) (SK-MEL-25) [%]	IC50 (SK-MEL-28) [µM]	SK-MEL-28 (% viability) (SK-MEL-28) [%]	SK-MEL-5 (% viability) (SK-MEL-5) [%]	IC50 (HFF-1; read-out: HFF-1 (IC50)) [µM]	MALME-3M (% viability) (MALME-3M) [%]	IC50 (LOX IMVI; 24 hours, resazurin) [µM]	LOX-IMVI (% viability) (LOX IMVI; human, 24 h) [%]	IC50 (SK-MEL-25; SK-MEL-25 melanoma cells, 24 hours, resazurin, read-out: SK-MEL-25 (IC50)) [µM]	IC50 (SK-MEL-28; 24 hours, resazurin) [µM]	IC50 (HFF-1; read-out: IC50 in cell line HFF-1) [µM]
C[C@]12CC[C@H]3[C@@H](CC=C4c5sc(Nc6ccc(F)cc6F)nc5CC[C@@]43C)[C@@H]1CC[C@@H]2O [IIIa.13, (1S,2R,13R,14S,17S,18S)-7-(2,4-difluoroanilino)-2,18-dimethyl-8-thia-6-azapentacyclo[11.7.0.02,10.05,9.014,18]icosa-5(9),6,10-trien-17-ol]	6.42	8	8.72	11	3.92	4.9	25	20.83	–	–	–	–	–
C[C@]12CC[C@H]3[C@@H](CC=C4c5sc(Nc6ccccn6)nc5CC[C@@]43C)[C@@H]1CC[C@@H]2O [IIIa.24, (1S,2R,13R,14S,17S,18S)-2,18-dimethyl-7-(2-pyridylamino)-8-thia-6-azapentacyclo[11.7.0.02,10.05,9.014,18]icosa-5(9),6,10-trien-17-ol]	> 20	–	1.76	–	1.50	2.25	> 20	10.69	–	–	–	–	–
Cc1ccc(Nc2nc3c(s2)C2=CC[C@H]4[C@@H]5CC[C@H](O)[C@@]5(C)CC[C@@H]4[C@@]2(C)CC3)cc1 [IIIa.33, (1S,2R,13R,14S,17S,18S)-2,18-dimethyl-7-(4-methylanilino)-8-thia-6-azapentacyclo[11.7.0.02,10.05,9.014,18]icosa-5(9),6,10-trien-17-ol]	4.64	6	7.53	6	0.90	1.21	13	23.03	< 10	6	< 10	< 10	13
